Laboratory results as given in patent US12606548B2, “Fungicidal oxadiazoles” (FMC CORPORATION, priority 2019, dated 2026).
Marks after values point to notes of the source that are not given here.

How the values were obtained:
Assay type in all cases: in vivo
Phakopsora pachyrhizi = experiment: Test A: test suspension sprayed on soybean seedlings, inoculated next day with Phakopsora pachyrhizi (Asian soybean rust), visual disease rating; conditions: for Test A rating (% disease control): relative to the controls
Text: General protocol for preparing test suspensions for Tests A-C: the test compounds were first dissolved in acetone in an amount equal to 3% of the final volume and then suspended at the desired concentration (in ppm) in acetone and purified water (50/50 mix by volume) containing 250 ppm of the surfactant PEG400 (polyhydric alcohol esters). The resulting test suspensions were then used in Tests A-C. The test suspension was sprayed to the point of run-off on soybean seedlings. The following day the seedlings were inoculated with a spore suspension of Phakopsora pachyrhizi (the causal agent of Asian soybean rust) and incubated in a saturated atmosphere at 22° C., for 24 h and then moved to a growth chamber at 22° C., for 8 days, after which time visual disease ratings were made. […] A dash (-) indicates the compound was not tested. The test suspensions were sprayed at the concentration listed in the column “Rate in ppm”, unless otherwise indicated.

Zymoseptoria tritici = experiment: Test B: test suspension sprayed on wheat seedlings, inoculated next day with Zymoseptoria tritici (wheat leaf blotch), visual disease rating; conditions: for Test B rating (% disease control): relative to the controls
Text: General protocol for preparing test suspensions for Tests A-C: the test compounds were first dissolved in acetone in an amount equal to 3% of the final volume and then suspended at the desired concentration (in ppm) in acetone and purified water (50/50 mix by volume) containing 250 ppm of the surfactant PEG400 (polyhydric alcohol esters). The resulting test suspensions were then used in Tests A-C.
The test suspension was sprayed to the point of run-off on wheat seedlings. The following day the seedlings were inoculated with a spore suspension of Zymoseptoria tritici (the causal agent of wheat leaf blotch) and incubated in a saturated atmosphere at 24° C., for 48 h, and then moved to a growth chamber at 20° C., for 17 days, after which time visual disease ratings were made.
Results for Tests A-C are given in Table A. In the Table, a rating of 100 indicates 100% disease control and a rating of 0 indicates no disease control (relative to the controls). A dash (-) indicates the compound was not tested. The test suspensions were sprayed at the concentration listed in the column “Rate in ppm”, unless otherwise indicated. An asterisk “*” next to the rating indicates a 250 ppm test suspension was used, a double asterisk “**” next to the rating indicates a 100 ppm test suspension was used, and a triple asterisk “***” next to the rating indicates a 50 ppm test suspension was used.

[1] = tested on: Puccinia recondita f. sp. tritici; experiment: Test C: test suspension sprayed on wheat seedlings, inoculated next day with Puccinia recondita f. sp. tritici (wheat leaf rust), visual disease rating; conditions: for Test C rating (% disease control): relative to the controls
Text: General protocol for preparing test suspensions for Tests A-C: the test compounds were first dissolved in acetone in an amount equal to 3% of the final volume and then suspended at the desired concentration (in ppm) in acetone and purified water (50/50 mix by volume) containing 250 ppm of the surfactant PEG400 (polyhydric alcohol esters). The resulting test suspensions were then used in Tests A-C. The test suspension was sprayed to the point of run-off on wheat seedlings. The following day the seedlings were inoculated with a spore suspension of Puccinia recondita f. sp. tritici; (the causal agent of wheat leaf rust) and incubated in a saturated atmosphere at 20° C., for 24 h, and then moved to a growth chamber at 20° C., for 6 days, after which time visual disease ratings were made. […] A dash (-) indicates the compound was not tested. The test suspensions were sprayed at the concentration listed in the column “Rate in ppm”, unless otherwise indicated.

[2] = 100 ppm test suspension (double asterisk **)

| SMILES | Test A disease control rating (Phakopsora pachyrhizi; 10 ppm test suspension) | Test B disease control rating (Zymoseptoria tritici; 250 ppm test suspension) | Test C disease control rating ([1]; 10 ppm test suspension) | Test A rating (% disease control) (Phakopsora pachyrhizi; Rate 10 ppm test suspension) | Test B rating (% disease control) (Zymoseptoria tritici; 250 ppm test suspension) | Test C rating (% disease control) ([1]; Rate 10 ppm test suspension) | further results |
| --- | --- | --- | --- | --- | --- | --- | --- |
| CCOC(=O)c1cnn(C(C)c2ccc(-c3noc(C(F)(F)F)n3)s2)c1 (racemic) [Compound 192] | 100% | 99* % | 100% | – | – | – | – |
| Cc1ccccc1C(O)c1ccc(-c2noc(C(F)(F)F)n2)cc1 (racemic) [Compound 497] | – | – | – | 100% | 5* % | 0% | – |
| CN(C)C(=O)C1=NOC(C)(Cn2cc(-c3noc(C(F)(F)F)n3)cn2)C1 (racemic) [compound 306] | – | 10* % | – | – | – | – | Test A disease control rating (Phakopsora pachyrhizi; 50 ppm test suspension): 0%; Test C disease control rating ([1]; 50 ppm test suspension): 0% |
| OC(c1ccc(-c2noc(C(F)(F)F)n2)cc1)c1cccc(F)c1 (racemic) [compound 498] | – | – | – | 100% | 43* % | 0% | – |
| OC(c1ccc(-c2noc(C(F)(F)F)n2)cc1)c1cccc(Cl)c1 (racemic) [compound 499] | – | – | – | – | 48* % | – | Test A rating (% disease control) (Phakopsora pachyrhizi; Rate 250 ppm test suspension): 100%; Test C rating (% disease control) ([1]; Rate 250 ppm test suspension): 100% |
| OC(c1ccc(F)cc1)c1ccc(-c2noc(C(F)(F)F)n2)cc1 (racemic) [compound 500] | – | – | – | – | 5* % | – | Test A rating (% disease control) (Phakopsora pachyrhizi; Rate 250 ppm test suspension): 100%; Test C rating (% disease control) ([1]; Rate 250 ppm test suspension): 100% |
| COC(=O)c1coc(COc2ccc(-c3noc(C(F)(F)F)n3)cc2)n1 [Compound 403, methyl 2-[[4-[5-(trifluoromethyl)-1,2,4-oxadiazol-3-yl]-phenoxy]methyl]oxazole-4-carboxylate] | – | – | – | 60% | 47* % | 0% | – |
| CCOC(=O)c1cccc(Cc2ccc(-c3noc(C(F)(F)F)n3)cc2)c1 [Compound 454] | – | – | – | 100% | 47* % | 0% | – |
| COC(=O)c1csc(Cc2ccc(-c3noc(C(F)(F)F)n3)cc2)c1 [Compound 455] | – | – | – | 100% | 66* % | 0% | – |
| COC(=O)c1coc(Cc2ccc(-c3noc(C(F)(F)F)n3)cc2)n1 [Compound 490] | – | – | – | 100% | 94* % | 74% | – |
| ON=Cc1cnn(Cc2ccc(-c3noc(C(F)(F)F)n3)cc2)c1 [compound 20] | – | 99% | – | – | – | – | Test A disease control rating (Phakopsora pachyrhizi; 250 ppm test suspension): 100%; Test C disease control rating ([1]; 250 ppm test suspension): 100% |
| COC(=O)c1cnn(Cc2ccc(-c3noc(C(F)(F)F)n3)cc2)c1 [compound 21] | 100% | – | 100% | – | – | – | Test B disease control rating (Zymoseptoria tritici; [2]): 97** % |
| N#CCOC(=O)c1cnn(Cc2ccc(-c3noc(C(F)(F)F)n3)cc2)c1 [compound 57] | 100% | – | 100% | – | – | – | Test B disease control rating (Zymoseptoria tritici; [2]): 99** % |
| CCCOC(=O)c1cnn(Cc2ccc(-c3noc(C(F)(F)F)n3)s2)c1 [compound 198] | 100% | – | 99% | – | – | – | Test B disease control rating (Zymoseptoria tritici; [2]): 94** % |
| O=C(NCC(F)F)c1coc(Cc2ccc(-c3noc(C(F)(F)F)n3)cc2)n1 [compound 225] | 100% | 99* % | 100% | – | – | – | – |
| N#CCCNC(=O)c1coc(Cc2ccc(-c3noc(C(F)(F)F)n3)cc2)n1 [compound 229] | 100% | 94* % | 100% | – | – | – | – |
| COCCNC(=O)c1coc(Cc2ccc(-c3noc(C(F)(F)F)n3)cc2)n1 [compound 257] | 100% | 99* % | 100% | – | – | – | – |
| O=C(NCCn1cccn1)c1coc(Cc2ccc(-c3noc(C(F)(F)F)n3)cc2)n1 [compound 264] | 100% | 99* % | 99% | – | – | – | – |

| SMILES | Test A disease control rating (Phakopsora pachyrhizi; 10 ppm test suspension) | Test B disease control rating (Zymoseptoria tritici; 250 ppm test suspension) | Test C disease control rating ([1]; 10 ppm test suspension) | Test A rating (% disease control) (Phakopsora pachyrhizi; Rate 10 ppm test suspension) | Test B rating (% disease control) (Zymoseptoria tritici; 250 ppm test suspension) | Test C rating (% disease control) ([1]; Rate 10 ppm test suspension) | further results |
| --- | --- | --- | --- | --- | --- | --- | --- |
| CCOC(=O)c1cnn(Cc2ccc(-c3noc(C(F)(F)F)n3)cc2)c1 [compound 276] | – | 35* % | – | – | – | – | Test A disease control rating (Phakopsora pachyrhizi; 50 ppm test suspension): 100%; Test C disease control rating ([1]; 50 ppm test suspension): 80% |
| O=C(NCC(F)(F)F)c1coc(Cc2ccc(-c3noc(C(F)(F)F)n3)cc2)n1 [compound 316] | 100% | 5* % | 100% | – | – | – | – |
| O=C(NCCC(F)(F)F)c1coc(Cc2ccc(-c3noc(C(F)(F)F)n3)cc2)n1 [compound 330] | 100% | 96* % | 100% | – | – | – | – |
| CCOC(=O)c1cnn(COc2ccc(-c3noc(C(F)(F)F)n3)cc2)c1 [compound 376] | 100% | 49* % | 68% | – | – | – | – |
| N#CCNC(=O)c1csc(Cc2ccc(-c3noc(C(F)(F)F)n3)cc2)n1 [compound 393] | – | – | – | 100% | 94* % | 100% | – |
| COCCNC(=O)c1csc(Cc2ccc(-c3noc(C(F)(F)F)n3)cc2)n1 [compound 394] | – | – | – | 100% | 99* % | 100% | – |
| O=C(NC1CCC(F)(F)CC1)c1coc(Cc2ccc(-c3noc(C(F)(F)F)n3)cc2)n1 [compound 395] | – | – | – | 95% | 0* % | 97% | – |
| O=C(NCCn1cccn1)c1csc(Cc2ccc(-c3noc(C(F)(F)F)n3)cc2)n1 [compound 396] | – | – | – | 100% | 28* % | 100% | – |
| O=C(NCCC(F)(F)F)c1csc(Cc2ccc(-c3noc(C(F)(F)F)n3)cc2)n1 [compound 397] | – | – | – | 100% | 82* % | 98% | – |
| O=C(NCCCC(F)(F)F)c1coc(Cc2ccc(-c3noc(C(F)(F)F)n3)cc2)n1 [compound 398] | – | – | – | 100% | 80* % | 97% | – |
| O=C(NCC=C(Cl)Cl)c1coc(Cc2ccc(-c3noc(C(F)(F)F)n3)cc2)n1 [compound 399] | – | – | – | 100% | 10* % | 99% | – |
| O=C(NCCF)c1coc(Cc2ccc(-c3noc(C(F)(F)F)n3)cc2)n1 [compound 400] | – | – | – | 100% | 99* % | 100% | – |
| O=C(NCCOC(F)(F)F)c1coc(Cc2ccc(-c3noc(C(F)(F)F)n3)cc2)n1 [compound 401] | – | – | – | 100% | 77* % | 99% | – |
| O=C(c1coc(Cc2ccc(-c3noc(C(F)(F)F)n3)cc2)n1)N1CCC(F)(F)C1 [compound 402] | – | – | – | 100% | 96* % | 90% | – |
| CCOC(=O)c1csc(COc2ccc(-c3noc(C(F)(F)F)n3)cc2)n1 [compound 404] | – | – | – | 0% | 0* % | 68% | – |
| CN(C)C(=O)C1=NOC(CN2CCC(c3noc(C(F)(F)F)n3)CC2)C1 (stereo not drawn) [compound 426] | – | – | – | – | 9* % | – | Test A rating (% disease control) (Phakopsora pachyrhizi; Rate 250 ppm test suspension): 0%; Test C rating (% disease control) ([1]; Rate 250 ppm test suspension): 0% |
| O=C(c1ccc(Cc2ccc(-c3noc(C(F)(F)F)n3)cc2)o1)C(F)(F)F [compound 450] | – | – | – | 94% | 41* % | 0% | – |
| FC(F)(F)c1nc(-c2ccc(Cc3ccccc3)cc2)no1 [compound 451] | – | – | – | 99% | 8* % | 0% | – |
